Patent US20230363954A1, “METHOD FOR MAKING AN ABSORBENT ARTICLE AND ABSORBENT ARTICLE” (The Procter & Gamble Company, priority 2022, published 2023)
Read-outs that look alike come from different tables or passages of the source.

Molecular target: T1, Jack Bean Urease (Canavalia ensiformis, UniProt P07374)
T1 construct: purchased Millipore Sigma U1500
Format: biochemical
Details: for Urease inhibition (in words): 0.1 g in synthetic urine with urease
Method: To test the efficiency of different Green Tea Extracts, three different samples were tested: • Sample 1′: pure EGCG: Cas. […] 84650-60-2, EC no. […] The test procedure per sample and for a reference without Green Tea Extract was the following, all steps were performed at ambient lab temperature (23±1° C.) and atmospheric pressure:
Synthetic Urine is prepared by dissolving 2% w/w urea, 0.9% w/w sodium chloride, 0.11% w/w magnesium sulfate monohydrate, 0.079% w/w calcium chloride monohydrate in deionized water. Urease stock solution (23.5 U/ml) is made by dissolving Jack Bean Urease (Catalog number U1500, Millipore Sigma, St. Louis, MO, USA, or equivalent) in deionized water.
67.5 ml of Synthetic urine were added to a beaker and the pH of the Synthetic urine (Urine pH) was determined analogously to the Urease Activity test method described above (Urine pH).
0.1 g of the corresponding Green Tea Extract—except for the reference sample—were added to the beaker and the solution stirred for 15 min. Afterwards the pH of the solution is determined.
7.5 ml of the Urease stock solution were added and the pH was monitored, while the stirring of the solution was maintained.
From the values, the difference in pH mediated by Urease was calculated from the difference of the pH of the Synthetic urine and the final pH determined after addition of the Urease stock.

T1 sequence (P07374 whole entry, looked up): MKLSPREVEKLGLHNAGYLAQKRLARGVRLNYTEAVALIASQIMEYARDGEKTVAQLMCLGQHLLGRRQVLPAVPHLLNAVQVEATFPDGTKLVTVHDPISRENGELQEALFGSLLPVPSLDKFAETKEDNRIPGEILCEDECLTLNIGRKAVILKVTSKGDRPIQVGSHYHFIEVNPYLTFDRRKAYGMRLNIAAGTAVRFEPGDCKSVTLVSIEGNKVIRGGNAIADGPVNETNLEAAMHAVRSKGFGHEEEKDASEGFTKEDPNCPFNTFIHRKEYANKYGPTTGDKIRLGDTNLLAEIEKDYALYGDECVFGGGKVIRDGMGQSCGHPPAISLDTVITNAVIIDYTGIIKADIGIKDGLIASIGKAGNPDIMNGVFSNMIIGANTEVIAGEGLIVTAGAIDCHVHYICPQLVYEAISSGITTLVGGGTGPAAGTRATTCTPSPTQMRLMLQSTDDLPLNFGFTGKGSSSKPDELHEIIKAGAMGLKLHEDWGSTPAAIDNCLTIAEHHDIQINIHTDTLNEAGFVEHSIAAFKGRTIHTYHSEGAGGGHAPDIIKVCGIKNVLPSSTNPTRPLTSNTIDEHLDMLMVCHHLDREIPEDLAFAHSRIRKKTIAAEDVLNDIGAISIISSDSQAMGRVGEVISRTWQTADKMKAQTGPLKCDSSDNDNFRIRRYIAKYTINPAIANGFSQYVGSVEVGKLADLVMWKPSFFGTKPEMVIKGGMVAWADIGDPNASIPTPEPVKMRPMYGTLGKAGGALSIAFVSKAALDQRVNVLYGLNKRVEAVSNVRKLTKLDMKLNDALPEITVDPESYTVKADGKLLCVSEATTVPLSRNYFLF

Q: For `O=C(O[C@@H]1Cc2c(O)cc(O)cc2O[C@@H]1c1cc(O)c(O)c(O)c1)c1cc(O)c(O)c(O)c1` [Sample 1′, Epigallocatechin gallate], which “Green Tea pH” value (0.1 g in 67.5 ml Synthetic urine, stirred 15 min, before urease addition) is on record?
A: Its value is 5.7.

Q: And the “Urease inhibition (in words)” value?
A: Its value is “inhibit Urease”.

Q: And the “Urease inhibition (in words)” value (listed as EGCG)?
A: Its value is “less efficient in its pure form”.

Q: What about the “End pH” value (after adding 7.5 ml Urease stock solution (23.5 U/ml), pH stabilized (typically 15 to 30 min)) of the same compound?
A: The value was 7.7.

Q: What about the pH difference (final pH minus pH of the Synthetic urine) of the same compound?
A: The pH difference was 1.2.
